Reference: patent US10995068B2, “Synthetic sphingolipid-like molecules, drugs, methods of their synthesis and methods of treatment” (The Regents of the University of California, priority 2015, dated 2021)
Read-outs that look alike come from different tables or passages of the source.

How the values were obtained:
S1P receptor 1 = molecular target: T1, S1P receptor 1 (Homo sapiens, UniProt P21453); test: S1P receptor activation in CHO cells, S1P1; assay type: cell-based; settings: CHO cells over-expressing human S1P1, 10 min stimulation, Western blot
T1 construct: expressed in transfected cells
T1 sequence (P21453 whole entry): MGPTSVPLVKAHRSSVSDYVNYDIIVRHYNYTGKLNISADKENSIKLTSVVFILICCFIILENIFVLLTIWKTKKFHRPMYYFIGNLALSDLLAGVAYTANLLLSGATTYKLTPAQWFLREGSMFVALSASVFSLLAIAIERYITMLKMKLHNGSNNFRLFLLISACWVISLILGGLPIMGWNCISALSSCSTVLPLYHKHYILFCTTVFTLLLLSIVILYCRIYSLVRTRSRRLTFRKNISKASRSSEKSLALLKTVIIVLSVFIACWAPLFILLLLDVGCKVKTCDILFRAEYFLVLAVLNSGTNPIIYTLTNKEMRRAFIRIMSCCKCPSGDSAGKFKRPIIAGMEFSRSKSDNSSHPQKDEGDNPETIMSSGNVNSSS
From the text: (§1) Phosphorylation may have effects on S1P receptor activity that could cause bradycardia. Bradycardia, the dose-limiting toxicity that prevents the use of FTY720 in cancer patients, stems from FTY720-P's actions on S1P receptors 1 and 3. (Camm, J., et al. (2014) Am. Heart J. 168, 632-644; Cohen, J. A., Chun, J. (2011) Ann. Neurol. 69, 759-777; Sanna, M. G., et al. (2004) J. Biol. Chem. 279, 13839-13848; the disclosures of which are incorporated herein by reference). Phosphorylation by sphingosine kinase may make compounds competent to activate S1P receptors. FTY720, for example, when phosphorylated is known to activate S1P receptors 1 and 3. Because compound 5 could be phosphorylated, the activity of compound 5 and its phosphate 5-P (FIG. 28) on S1P receptors was evaluated (FIG. 32).
(§2) 51P1-5 activation: Chinese hamster ovary (CHO) cells stably over-expressing the different human 51P receptor subtypes are used. S1P1, S1P4 and S1P5 overexpressing CHO cells are cultured in medium containing alpha-MEM supplemented with 10% FBS, 50 μg/ml gentamycin and 0.5 mg/ml G418. S1P2 and S1P3 overexpressing CHO cells are cultured in RPMI containing 10% FBS, 50 μg/ml gentamycin and 0.5 mg/ml G418. Prior to stimulation, cells are rendered serum-free for 24 h. Stimulation is carried out for 10 min in serum-free DMEM containing 0.1 mg/ml of fatty-acid free BSA in the absence or presence of the various compounds or 51P. Protein lysates are prepared using a buffer containing (50 mM Tris pH 7.4, 150 mM NaCl, 10% glycerol, 1% Triton X-100, 2 mM EDTA, 2 mM EGTA, 40 mM β-glycerophosphate, 50 mM sodium fluoride, 10 mM sodium pyrophosphate, 2 mM dithiothreitol, 0.2 mM sodium orthovanadate). Cells are homogenized by one 5 sec burst in a MSE Ultrasonic Disintegrator, centrifuged and taken for protein determination. Equal amounts of protein are separated by SDS-PAGE (10% polyacrylamide gel), transferred to nitrocellulose membranes and subjected to Western blot analysis. Bands were stained using IRDye® secondary antibodies and visualized by the LICOR Odyssey® Fc Imaging system. Antibodies against phospho-Thr202/Tyr204-p42/p44-MAPK and phospho-Ser PKC substrate are from Cell Signaling, Frankfurt am Main, Germany. Polyclonal antisera against total p42 and total p44 were generated and characterized as previously described. (Huwiler, A.; Pfeilschifter, J. Br. J. Pharmacol. 1994, 113, 1455-1463; disclosure of which is incorporated herein by reference).

S1P receptor 2 = molecular target: T2, S1P receptor 2 (Homo sapiens, UniProt O95136); test: S1P receptor activation in CHO cells, S1P2; assay type: cell-based; settings: CHO cells over-expressing human S1P2
T2 construct: expressed in transfected cells
T2 sequence (O95136 whole entry): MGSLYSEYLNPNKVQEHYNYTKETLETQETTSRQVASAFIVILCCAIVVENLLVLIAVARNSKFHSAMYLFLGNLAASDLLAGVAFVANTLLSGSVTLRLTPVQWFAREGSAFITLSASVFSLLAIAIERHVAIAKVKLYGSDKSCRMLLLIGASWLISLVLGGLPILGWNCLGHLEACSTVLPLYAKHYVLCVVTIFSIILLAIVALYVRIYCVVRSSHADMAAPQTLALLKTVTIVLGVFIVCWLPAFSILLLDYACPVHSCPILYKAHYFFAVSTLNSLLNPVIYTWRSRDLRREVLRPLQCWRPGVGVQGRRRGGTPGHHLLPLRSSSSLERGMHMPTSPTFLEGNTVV
From the text: as §1, §2

S1P receptor 3 = molecular target: T3, S1P receptor 3 (Homo sapiens, UniProt Q99500); test: S1P receptor activation in CHO cells, S1P3; assay type: cell-based; settings: CHO cells over-expressing human S1P3
T3 construct: expressed in transfected cells
T3 sequence (Q99500 whole entry): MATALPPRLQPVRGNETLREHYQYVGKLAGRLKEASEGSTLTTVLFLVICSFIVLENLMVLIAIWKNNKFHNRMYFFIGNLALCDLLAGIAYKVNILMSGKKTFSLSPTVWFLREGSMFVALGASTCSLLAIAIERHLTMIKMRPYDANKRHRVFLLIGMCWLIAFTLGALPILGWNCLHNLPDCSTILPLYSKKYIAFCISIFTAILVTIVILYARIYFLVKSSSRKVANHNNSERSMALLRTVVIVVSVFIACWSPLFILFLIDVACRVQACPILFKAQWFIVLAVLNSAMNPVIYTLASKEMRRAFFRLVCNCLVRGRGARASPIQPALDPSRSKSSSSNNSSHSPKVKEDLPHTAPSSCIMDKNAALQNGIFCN
From the text: as §1, §2

S1P receptor 4 = molecular target: T4, S1P receptor 4 (Homo sapiens, UniProt O95977); test: S1P receptor activation in CHO cells, S1P4; assay type: cell-based; settings: CHO cells over-expressing human S1P4
T4 construct: expressed in transfected cells
T4 sequence (O95977 1-384): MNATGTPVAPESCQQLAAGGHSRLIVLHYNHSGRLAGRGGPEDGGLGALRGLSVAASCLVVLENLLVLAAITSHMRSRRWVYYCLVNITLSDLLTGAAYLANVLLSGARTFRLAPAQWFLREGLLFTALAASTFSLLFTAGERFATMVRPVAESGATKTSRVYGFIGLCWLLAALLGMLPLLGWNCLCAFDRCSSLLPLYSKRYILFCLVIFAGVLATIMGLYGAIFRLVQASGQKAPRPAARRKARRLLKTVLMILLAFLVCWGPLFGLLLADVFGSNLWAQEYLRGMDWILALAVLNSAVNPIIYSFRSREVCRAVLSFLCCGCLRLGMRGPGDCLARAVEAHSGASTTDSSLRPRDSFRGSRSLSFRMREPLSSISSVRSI
From the text: as §1, §2

S1P receptor 5 = molecular target: T5, S1P receptor 5 (Homo sapiens, UniProt Q9H228); test: S1P receptor activation in CHO cells, S1P5; assay type: cell-based; settings: CHO cells over-expressing human S1P5
T5 construct: expressed in transfected cells
T5 sequence (Q9H228 whole entry): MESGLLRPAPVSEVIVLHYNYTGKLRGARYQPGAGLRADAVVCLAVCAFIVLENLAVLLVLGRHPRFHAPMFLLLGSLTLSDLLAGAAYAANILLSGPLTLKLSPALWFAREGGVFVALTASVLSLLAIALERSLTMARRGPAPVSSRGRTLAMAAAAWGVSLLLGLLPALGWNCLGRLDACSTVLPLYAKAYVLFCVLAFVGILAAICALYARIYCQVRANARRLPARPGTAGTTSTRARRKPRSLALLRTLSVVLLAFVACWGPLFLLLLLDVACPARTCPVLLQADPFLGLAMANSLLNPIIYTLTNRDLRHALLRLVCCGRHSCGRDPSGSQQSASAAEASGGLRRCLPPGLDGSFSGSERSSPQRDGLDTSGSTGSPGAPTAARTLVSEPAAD
From the text: as §1, §2

[1] = Heart rate by ECG telemetry in mice; assay type: in vivo, C57BL/6 mice; settings: single dose 10 mg/kg intraperitoneally
From the text: (§3) In more exemplary embodiments, compounds 5 and 5-P were further examined for their ability to activate multiple S1P receptors in vivo. In particular, mouse heart rate and lymphocyte sequestration were examined. Mouse heart rate decreases causing bradycardia when S1P receptor 3 is activated while in humans this effect may be mediated by S1P receptor 1. In both mice and humans, lymphocytes are sequestered when the S1P receptor 1 is activated.
As shown in the telemetry readings detailed in FIG. 36, FTY720 (B) slowed heart rate comparison to compound 5 (C) and the control (A, saline). As shown in A, after administering saline, normal sinus rhythm with clearly discernible P waves, representing atrial depolarization, and QRS complexes, representing ventricular depolarization, at regular intervals is observed. The heart rate in this tracing was approximately 600 beats per minute (BPM). […] Finally, as shown in C, for exemplary embodiment compound 5, similar to the saline injection, normal sinus rhythm with well-defined and consistent P waves and QRS complexes were present following injection. The heart rate in this tracing was approximately 600 BPM, similar to saline.
Heart rate: C57BL/6 mice are surgically implanted with DSI TA-ETAF20 electrocardiographic telemetry devices (Data Sciences International, St. Paul, Minn.). The electrocardiographic data is collected and recorded using the PhysioTel telemetry system and Dataquest A.R.T 4.0 software (DSI). The telemetry device is implanted in the mouse's abdominal cavity with biopotential leads sutured in place in the chest wall. Buprenorphine (0.05 mg/kg) is administered every 12 h after surgery for pain management and enrofloxacin (3 mg/kg) is administered 2× per day for 7 days post-surgery as an antibiotic. Mice are permitted two weeks recovery after surgery before initiation of baseline telemetry recordings. Heart rate is calculated from ECG data taken in the freely moving, conscious mice. Mice are divided into two groups of 3 mice and treated intraperitoneally with a single dose of vehicle (0.9% saline or 20% acidified DMSO in 0.9% saline), 10 mg/kg FTY720, FTY720-Phosphate, 5, or 5-P and heart rate monitored continuously for 10 h. Mice are rested for two weeks at which point the experiment is repeated with the mice assigned to the alternate group. These experiments are performed in accordance with all national or local guidelines and regulations and were approved by the UCI Institutional Animal Care and Use Committee.

[2] = Lymphocyte sequestration in mice; assay type: in vivo, C57BL6 mice; settings: 10 mg/kg intraperitoneally, blood after 12 h, compared to saline
From the text: as §3
Lymphocyte sequestration: Female 8-24 week old C57BL6 mice are injected intraperitoneally with vehicle (0.9% saline or 20% acidified DMSO in 0.9% saline), 10 mg/kg FTY720, FTY720-phosphate, 5, or 5-P. After 12 h, blood is collected from the retro-orbital sinus under ketamine/xylazine anesthesia. 10 μL of whole blood is added to 190 μL of ACK red blood cell lysis buffer, incubated at room temperature for 3-5 minutes […], and the white blood cells recovered by centrifugation. Nucleated cells (Hoechst33342 positive) are counted using a hemocytometer to obtain the white blood cell count. Separately, 50 μL of whole blood is added to 1 mL of ACK red blood cell lysis buffer and incubated for 3-5 minutes at room temperature. Cells are washed with FACS wash (2% FCS in PBS with 0.05% NaN3) and red blood cell lysis repeated. Tubes are decanted and resuspended in 100 μL of FACS block (10% FCS in PBS with 0.05% NaN3) with directly conjugated antibodies recognizing B220, CD4, or CD8 (all from Biolegend, San Diego) for 30 min on ice. Cells are analyzed on a BD LSR II flow cytometer; the analysis is restricted to live cells (DAPI negative). These experiments are performed in accordance with all national or local guidelines and regulations and are approved by the UCI Institutional Animal Care and Use Committee.

[3] = system: PC3 prostate cancer cells; test: Cell Titer Glo proliferation assay in PC3; assay type: cell-based, human; settings: Cell Titer Glo, 72 h, Mean ± SEM, n ≥ 3, read-out: IC50 values in prostate cancer cell lines, PC3
Experimental: (§4) Previously presented compounds 1-4 (FIG. 23), compounds 5-8 (FIG. 28), and control compound FTY720 (FIG. 2) were used to treat the well-established PC3 and DU145 prostate cancer lines (FIG. 29 and Table 1). A Cell Titer Glo assay was performed to measure proliferation of the cancer lines.
(§5) Cell culture studies: Sup-B15 cells are maintained at 2-3 million/mL in RPMI 1640 (Mediatech) supplemented with 10% fetal calf serum (FCS, Sigma-Aldrich), 10 mM Hepes (Mediatech), 55 μM β-mercaptoethanol (Sigma-Aldrich), 2 mM L-glutamine (Mediatech), and antibiotics. All adherent cells are maintained at 70-80% confluence. Cell are cultured in the following media: PC3 & A549, Ham's F12K (Corning Cell Gro) supplemented with 10% FCS and antibiotics; DU145 cells, MEM (Corning Cell Gro) supplemented with 10% FCS, 1 mM sodium pyruvate (Mediatech), and antibiotics; SW620 & MDA-MB-231, DMEM (Corning Cell Gro) with 10% FCS, 1 mM sodium pyruvate (Mediatech), and antibiotics; Panc-1 cells, DMEM (Corning Cell Gro) supplemented with 10% FCS and antibiotics. All of the above cell lines are available from the ATCC.
(§6) Viability assays: Cell Titer Glo assays (Cell Titer Glo Luminescent Cell Viability Assay kit, cat #G7571, Promega Corporation) are performed in clear bottom 96-well black cell culture plates (cat #655090, Greiner Bio-One, NC, USA). After plating at 1,000 cells/well in volume of 100 μl, cells are left undisturbed for at least 24 h before drug addition. After 72 h, cells are prepared for analysis by adding 10 μl of 0.1% Triton-X100 in PBS with shaking for 1 min at room temperature (RT). Cell Titer-Glo cell lysis reagent (20 μl) is then added followed by 1 min of shaking and a 10 min incubation in the dark at RT. Luminescence is detected using an IVIS imaging system (IVIS Lumina II, Perkin Elmer, USA). […] IC50s are determined using GraphPad Prism (GraphPad Software, Inc, La Jolla, Calif.). SupB-15 viability was determined by flow cytometry. Cell Titer Glo assays were performed with the other cell lines.

[4] = system: DU145 prostate cancer cells; test: Cell Titer Glo proliferation assay in DU145; assay type: cell-based, human; settings: Mean ± SEM, n ≥ 3, read-out: IC50 values in prostate cancer cell lines, DU145
Experimental: as §4, §5, §6

[5] = system: PC3 prostate cancer cells; test: Cell viability by vital dye exclusion and flow cytometry in PC3; assay type: cell-based, human; settings: Homo sapiens; vital dye exclusion (DAPI) and flow cytometry, 72 h
Experimental: Thus, to determine whether analogues in accordance with embodiments of the invention are cytotoxic, studies were conducted using vital dye exclusion and flow cytometry (Table 2).
as §6

Row | IC50 ([3]; Homo sapiens) | IC50 ([4]; Homo sapiens, DU-145, 72 h) | IC50 [5] | Structure (SMILES) | activation of S1P receptor 1 (S1P receptor 1) | activation of S1P receptor 2 (S1P receptor 2) | activation of S1P receptor 3 (S1P receptor 3) | activation of S1P receptor 4 (S1P receptor 4) | activation of S1P receptor 5 (S1P receptor 5) | decrease of heart rate ([1]; compared to saline vehicle) | lymphocyte sequestration [2] | effect on heart rate ([1]; compared to saline controls) | IC50 [3] | IC50 ([4]; 72 h)
1 | – | – | – | CCCCCCCCCCCCC/C=C/[C@@H](O)[C@@H](N)COP(=O)(O)O [Compound S1P, sphingosine-1 phosphate, reference compound] | activated | activated | activated | activated | activated | – | – | – | – | –
2 | – | – | – | CCCCCCCCc1ccc(CC[C@](N)(CO)COP(=O)(O)O)cc1 [FTY720-P, reference compound] | – | – | – | – | – | approximately 50% | significantly sequestered lymphocytes | – | – | –
3 | – | – | – | CCCCCCCCc1ccc([C@H]2CCN[C@@H]2COP(=O)(O)O)cc1 [Compound 5-P, ((2S,3R)-3-(4-octylphenyl)pyrrolidin-1-ium-2-yl)Methyl hydrogen phosphate] | weakly activated | failed to activate | failed to activate | failed to activate | failed to activate | – | no significant effect | no significant effect | – | –
4 | – | – | – | CCCCCCCCc1ccc([C@@H]2CCN[C@H]2C)cc1.Cl [Compound 12] | not able to activate | not able to activate | not able to activate | not able to activate | not able to activate | – | – | – | 4.1 ± 0.4 µM | 5 ± 0.1 µM
5 | 4.9 ± 0.6 µM | 5.3 ± 0.2 µM | 8.3 ± 0.2 µM | CCCCCCCCc1ccc([C@H]2C[C@H](CO)N[C@H]2CO)cc1 [Compound 3, (2R,3R,5R)-2,5-Bis(hydroxymethyl)-3-(4-octylphenyl)pyrrolidinium chloride] | – | – | – | – | – | – | – | – | – | –
